This is an account of results in patent US20240293386A1, “NOVEL COMPOUND AS PROTEIN KINASE INHIBITOR” (LG CHEM, LTD., priority 2021, published 2024).

For orientation: IC50 means the midpoint of a concentration-inhibition curve.

For one test, the target named is cMET (Homo sapiens, UniProt P08581). Description: Evaluation of inhibitory activity against MET (TR-FRET). The class given is biochemical. Conditions: TR-FRET enzyme assay, cMET protein, TK peptide substrate, ATP. The method, then: In addition, in order to measure the enzyme activity inhibition for cMET, the evaluation was performed in the same manner as the enzyme activity inhibition measurement experiment for RON.
Specifically, the compound was prepared to a concentration of 1 mM in 100% DMSO and was diluted 10 times in a stepwise manner through 3-fold dilution. The compound (2 μL) diluted in a stepwise manner was added to a 96-well-plate containing 48 μL of a 1× kinase reaction buffer (50 mM HEPES (pH 7.4), 0.05% BSA, 0.005% Tween-20, 1 mM DTT, 0.5 mM MnCl2, 20 mM MgCl2).
The cMET protein was diluted to a concentration of 263 nM in a cMET storage buffer (50 mM Tris-HCl (pH 7.5), 150 mM NaCl, 0.05% Brij35, 1 mM DTT, 10% Glycerol), and then diluted again to a concentration of 2 nM in a 1× kinase reaction buffer. As a substrate cocktail, a MET-specific substrate mixed solution (5 μM TK peptide, 10 mM ATP) was prepared at a concentration 2 times the final reaction concentration.
(§1) Thereafter, a 384-well-plate was prepared, and 2.5 μL of each of the diluted compounds of Examples was added to a corresponding well of experimental group wells, and 2.5 μL of a 4% DMSO solution was dispensed into high control wells and low control wells.
(§2) Thereafter, 2.5 μL of 2 nM cMET was dispensed into each of the high control wells and the experimental group wells, and 2.5 μL of the 1× kinase reaction buffer was added to the low control wells, and all the wells were centrifuged at room temperature for 40 seconds at 1,000 RPM, and then incubated at room temperature for 20-30 minutes. Then, 5 μL of the substrate cocktail (2×) was dispensed into each well, and all the wells were centrifuged at room temperature for 40 seconds at 1,000 RPM, and then incubated at room temperature for 60 minutes. Thereafter, 5 μL of 90 mM EDTA was added to each well to terminate the reaction, and all the wells were then incubated again at room temperature for 5 minutes. Thereafter, 5 μL of a 4× phosphotyrosine antibody (Perkin Elmer) containing europium was added to each well, and all the wells were then incubated at room temperature for 60 minutes. After the incubation, the 384-well-plate was read with the Vison plate reader. In this case, the excitation wavelength was 340 nm, and the emission wavelength was 620 nm and 665 nm. The IC50 value of each compound of Examples was derived using the GraphPd Prism7 program.
(In general: TR-FRET usually uses a lanthanide donor and a delayed reading to cut background.)

A further test deals with RON (Homo sapiens, UniProt Q04912). The test can be described thus: Evaluation of inhibitory activity against RON (TR-FRET). The test is classed as biochemical. The settings on record: TR-FRET enzyme assay, RON protein, ULight-labeled Poly GT substrate, ATP. The method, then: In order to measure the inhibitory activity of each of the compounds of Examples against RON, the IC50 of each of the compounds was measured using Time-resolved fluorescence energy transfer (TR-FRET).
Specifically, the compound was prepared to a concentration of 1 mM in 100% DMSO and was diluted 10 times in a stepwise manner through 3-fold dilution. The compound (2 μL) diluted in a stepwise manner was added to a 96-well-plate containing 48 μL of a 1× kinase reaction buffer (50 mM HEPES (pH 7.4), 0.01% Tween-20, 5 mM DTT, 0.5 mM Na3VO4, 2 mM EGTA, 10 mM MgCl2).
The RON protein was diluted to a concentration of 49.3 nM in a RON storage buffer (50 mM Tris-HCl (pH 7.5), 150 mM NaCl, 0.5 mM EDTA, 0.02% Triton X-100), and then diluted again to a concentration of 0.4 nM in a 1× kinase reaction buffer. As a substrate cocktail, a RON-specific substrate mixed solution (40 uM ULight-labeled Poly GT, 100 nM ATP) was prepared at a concentration 2 times the final reaction concentration.
as §1
as §2, with “of 0.4” for “of 2”, “nM RON” for “nM cMET”, “of 30” for “of 90”

The structures appear in SMILES notation.

Chain of cMET (P08581 25-1390): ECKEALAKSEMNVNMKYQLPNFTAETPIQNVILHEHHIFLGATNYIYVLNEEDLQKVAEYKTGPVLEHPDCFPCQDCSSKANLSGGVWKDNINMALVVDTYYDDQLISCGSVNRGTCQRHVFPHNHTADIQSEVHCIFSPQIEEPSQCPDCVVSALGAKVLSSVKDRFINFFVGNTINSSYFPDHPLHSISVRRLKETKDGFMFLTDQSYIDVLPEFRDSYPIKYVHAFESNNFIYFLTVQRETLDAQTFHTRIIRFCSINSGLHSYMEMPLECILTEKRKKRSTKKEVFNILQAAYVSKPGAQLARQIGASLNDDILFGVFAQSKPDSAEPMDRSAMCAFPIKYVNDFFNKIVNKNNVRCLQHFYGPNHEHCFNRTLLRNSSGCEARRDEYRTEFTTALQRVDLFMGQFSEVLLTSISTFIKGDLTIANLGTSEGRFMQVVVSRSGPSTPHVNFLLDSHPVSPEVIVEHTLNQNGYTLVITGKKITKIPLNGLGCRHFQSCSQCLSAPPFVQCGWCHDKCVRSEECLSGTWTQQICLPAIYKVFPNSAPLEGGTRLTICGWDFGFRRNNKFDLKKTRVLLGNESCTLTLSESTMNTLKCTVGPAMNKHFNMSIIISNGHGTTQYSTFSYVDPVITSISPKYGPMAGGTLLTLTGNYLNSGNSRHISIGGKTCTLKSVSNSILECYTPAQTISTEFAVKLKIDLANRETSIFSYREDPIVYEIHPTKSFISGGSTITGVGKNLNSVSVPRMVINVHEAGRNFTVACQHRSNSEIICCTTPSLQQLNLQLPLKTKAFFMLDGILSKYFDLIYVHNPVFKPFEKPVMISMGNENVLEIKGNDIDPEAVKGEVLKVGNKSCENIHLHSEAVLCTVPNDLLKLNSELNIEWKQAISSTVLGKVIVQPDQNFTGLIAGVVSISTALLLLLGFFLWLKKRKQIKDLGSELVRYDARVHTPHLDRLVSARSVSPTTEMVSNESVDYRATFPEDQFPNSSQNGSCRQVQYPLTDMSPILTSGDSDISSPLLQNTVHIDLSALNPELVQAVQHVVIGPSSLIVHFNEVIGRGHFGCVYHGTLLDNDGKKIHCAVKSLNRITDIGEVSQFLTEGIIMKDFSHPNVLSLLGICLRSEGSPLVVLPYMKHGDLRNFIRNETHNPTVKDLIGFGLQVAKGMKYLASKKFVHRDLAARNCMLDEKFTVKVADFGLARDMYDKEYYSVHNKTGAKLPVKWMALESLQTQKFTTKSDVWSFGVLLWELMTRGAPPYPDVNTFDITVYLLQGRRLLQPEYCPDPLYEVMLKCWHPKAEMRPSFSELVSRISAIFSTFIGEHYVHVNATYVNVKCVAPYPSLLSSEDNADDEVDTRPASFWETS
Chain of RON (Q04912 25-1400, species assumed): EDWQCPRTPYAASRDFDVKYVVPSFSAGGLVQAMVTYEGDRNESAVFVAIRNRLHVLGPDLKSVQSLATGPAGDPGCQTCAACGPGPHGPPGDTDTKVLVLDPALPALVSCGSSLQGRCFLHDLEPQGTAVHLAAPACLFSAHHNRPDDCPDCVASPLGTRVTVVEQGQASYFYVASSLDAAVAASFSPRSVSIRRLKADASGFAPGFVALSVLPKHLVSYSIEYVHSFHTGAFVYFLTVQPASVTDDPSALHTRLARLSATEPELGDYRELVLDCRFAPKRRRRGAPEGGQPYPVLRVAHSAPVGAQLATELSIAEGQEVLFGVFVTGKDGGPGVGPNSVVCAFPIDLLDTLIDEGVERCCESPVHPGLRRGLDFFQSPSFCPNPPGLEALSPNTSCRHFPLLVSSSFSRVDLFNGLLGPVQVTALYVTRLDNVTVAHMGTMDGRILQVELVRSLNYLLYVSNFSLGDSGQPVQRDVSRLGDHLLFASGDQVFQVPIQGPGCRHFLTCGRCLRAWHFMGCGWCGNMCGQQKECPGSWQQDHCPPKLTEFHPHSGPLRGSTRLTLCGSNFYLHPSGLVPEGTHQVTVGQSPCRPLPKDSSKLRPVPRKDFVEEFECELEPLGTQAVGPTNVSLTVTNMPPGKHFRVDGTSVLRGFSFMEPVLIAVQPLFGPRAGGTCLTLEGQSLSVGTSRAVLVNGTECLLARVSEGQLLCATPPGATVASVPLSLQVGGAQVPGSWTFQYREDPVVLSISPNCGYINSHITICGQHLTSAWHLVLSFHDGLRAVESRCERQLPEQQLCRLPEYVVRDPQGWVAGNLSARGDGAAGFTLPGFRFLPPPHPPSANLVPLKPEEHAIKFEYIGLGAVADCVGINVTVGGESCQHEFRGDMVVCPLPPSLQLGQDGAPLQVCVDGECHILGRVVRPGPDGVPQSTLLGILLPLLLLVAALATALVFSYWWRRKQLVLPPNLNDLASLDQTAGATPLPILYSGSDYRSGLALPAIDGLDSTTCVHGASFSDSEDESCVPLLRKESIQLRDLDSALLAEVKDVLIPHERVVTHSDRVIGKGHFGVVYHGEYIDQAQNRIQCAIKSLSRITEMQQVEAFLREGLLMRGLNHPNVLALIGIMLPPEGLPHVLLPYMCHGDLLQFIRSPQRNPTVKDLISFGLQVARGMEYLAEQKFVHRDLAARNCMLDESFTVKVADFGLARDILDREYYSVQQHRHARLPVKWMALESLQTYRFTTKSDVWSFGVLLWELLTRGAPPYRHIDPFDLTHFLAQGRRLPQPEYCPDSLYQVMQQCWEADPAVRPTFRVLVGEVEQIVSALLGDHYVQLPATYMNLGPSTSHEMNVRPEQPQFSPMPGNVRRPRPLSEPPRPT

At cMET, `CCOc1ccn(-c2ccc(F)cc2)c(=O)c1C(=O)Nc1ccc(Nc2ccc3nc(N)sc3n2)c(F)c1` [Example 3, N-(4-((2-aminothiazolo[5,4-b]pyridin-5-yl)amino)-3-fluorophenyl)-4-ethoxy-1-(4-fluorophenyl)-2-oxo-1,2-dihydropyridine-3-carboxamide] yielded an IC50 of 6720 nM. Take `Cc1ccc(C(=O)Nc2ccc(Oc3ncnc(N)c3Cl)c(F)c2)c(=O)n1-c1ccc(F)cc1` [Example 36, N-(4-((6-amino-5-chloropyrimidin-4-yl)oxy)-3-fluorophenyl)-1-(4-fluorophenyl)-6-methyl-2-oxo-1,2-dihydropyridine-3-carboxamide]: the IC50 came out at 7 nM against RON and 14 nM against cMET.

Take `Cc1ccc(C(=O)Nc2ccc(NC(=O)c3cc(Br)cnc3N)c(F)c2)c(=O)n1-c1ccc(F)cc1` [Example 32, 2-amino-5-bromo-N-(2-fluoro-4-(1-(4-fluorophenyl)-6-methyl-2-oxo-1,2-dihydropyridine-3-carboxamido)phenyl)nicotinamide]: the IC50 against cMET was 1690 nM.

As to `Cc1ccc(C(=O)Nc2ccc(Oc3cc(Cl)nn4ccnc34)c(F)c2)c(=O)n1-c1ccc(F)cc1` [Example 6, N-(4-((6-chloroimidazo[1,2-b]pyridazin-8-yl)oxy)-3-fluorophenyl)-1-(4-fluorophenyl)-6-methyl-2-oxo-1,2-dihydropyridine-3-carboxamide], half-maximal inhibition on cMET (IC50) required 8270 nM. On cMET, `Cc1ccc(C(=O)Nc2ccc(-c3ccnc(-c4ccnc(N)n4)c3)c(F)c2)c(=O)n1-c1ccc(F)cc1` [Example 16, N-(4-(2-(2-aminopyrimidin-4-yl)pyridin-4-yl)-3-fluorophenyl)-1-(4-fluorophenyl)-6-methyl-2-oxo-1,2-dihydropyridine-3-carboxamide] came in with an IC50 of 1490 nM. Regarding `CCOc1ccn(-c2ccc(F)cc2)c(=O)c1C(=O)Nc1ccc(-c2ccc3[nH]ncc3c2)c(F)c1` [Example 19], the IC50 against cMET was 6540 nM. This IC50 lies about 4.4-fold higher than the previous one. On to `CCOc1ccn(-c2ccc(F)cc2)c(=O)c1C(=O)Nc1ccc(-c2ccc3c(N)n[nH]c3c2)c(F)c1` [Example 18, N-(4-(3-amino-1H-indazol-6-yl)-3-fluorophenyl)-4-ethoxy-1-(4-fluorophenyl)-2-oxo-1,2-dihydropyridine-3-carboxamide], for which the figures for the IC50 against RON and against cMET were 467 nM and 496 nM, respectively. As for `Nc1nccc(Oc2ccc(NC(=O)c3cc(C4CC4)cn(-c4ccc(F)cc4)c3=O)cc2F)c1Cl` [Example 27, N-(4-((2-amino-3-chloropyridin-4-yl)oxy)-3-fluorophenyl)-5-cyclopropyl-1-(4-fluorophenyl)-2-oxo-1,2-dihydropyridine-3-carboxamide], the figures for the IC50 on RON and against cMET were 2 nM and 6 nM, respectively. For `Nc1nccc(Oc2ccc(NC(=O)c3ccc(C(F)(F)F)n(-c4ccc(F)cc4)c3=O)cc2F)c1Cl` [Example 28, N-(4-((2-amino-3-chloropyridin-4-yl)oxy)-3-fluorophenyl)-1-(4-fluorophenyl)-2-oxo-6-(trifluoromethyl)-1,2-dihydropyridine-3-carboxamide], in that order: 8 nM and 18 nM. The corresponding values for `Nc1nccc(Oc2ccc(NC(=O)c3ccc(CO)n(-c4ccc(F)cc4)c3=O)cc2F)c1Cl` [Example 26, N-(4-((2-amino-3-chloropyridin-4-yl)oxy)-3-fluorophenyl)-1-(4-fluorophenyl)-6-(hydroxymethyl)-2-oxo-1,2-dihydropyridine-3-carboxamide] are 3 nM and 3 nM. Regarding `Cc1ccc(C(=O)Nc2ccc(Oc3ccnc(NC(=O)C4CC4)c3Cl)c(F)c2)c(=O)n1-c1ccc(F)cc1` [Example 30, N-(4-((3-chloro-2-(cyclopropanecarboxamido)pyridin-4-yl)oxy)-3-fluorophenyl)-1-(4-fluorophenyl)-6-methyl-2-oxo-1,2-dihydropyridine-3-carboxamide], the values for the IC50 against RON and on cMET were 25 nM and 12 nM, respectively.

For the compound `Cc1c(C(=O)Nc2ccc(Oc3ccnc(N)c3Cl)c(F)c2)c(=O)n(-c2ccccc2)n1CC(C)(C)O` [Example 29, N-(4-((2-amino-3-chloropyridin-4-yl)oxy)-3-fluorophenyl)-1-(2-hydroxy-2-methylpropyl)-5-methyl-3-oxo-2-phenyl-2,3-dihydro-1H-pyrazole-4-carboxamide], the IC50 against RON is 82 nM; on cMET, 54 nM. For `CCOc1ccn(-c2ccc(F)cc2)c(=O)c1C(=O)Nc1ccc(-c2ccc3nc(N)sc3n2)c(C)c1` [Example 1, N-(4-(2-aminothiazolo[5,4-b]pyridin-5-yl)-3-methylphenyl)-4-ethoxy-1-(4-fluorophenyl)-2-oxo-1,2-dihydropyridine-3-carboxamide], the figures for the IC50 against RON and at cMET were 5120 nM and 5230 nM, respectively. For `Cc1c(C(=O)Nc2ccc(Oc3ccnc(N)c3Cl)c(F)c2)c(=O)n(-c2ccccc2)n1C` [Example 24, N-(4-((2-amino-3-chloropyridin-4-yl)oxy)-3-fluorophenyl)-1,5-dimethyl-3-oxo-2-phenyl-2,3-dihydro-1H-pyrazole-4-carboxamide], the IC50 stood at 44 nM against RON and 11 nM at cMET. As for `Cc1ccc(C(=O)Nc2ccc(NC(=O)c3cc(-c4cnn(C)c4)cnc3N)c(F)c2)c(=O)n1-c1ccc(F)cc1` [Example 34, 2-amino-N-(2-fluoro-4-(1-(4-fluorophenyl)-6-methyl-2-oxo-1,2-dihydropyridin-3-carboxamido)phenyl)-5-(1-methyl-1H-pyrazol-4-yl)nicotinamide], the IC50 at RON came out at 7880 nM; against cMET, 1560 nM. The corresponding values for `Cc1ccc(C(=O)Nc2ccc(Oc3ccnc(N)c3Cl)c(F)c2)c(=O)n1-c1ccc(F)cc1` [Example 25, N-(4-((2-amino-3-chloropyridin-4-yl)oxy)-3-fluorophenyl)-1-(4-fluorophenyl)-6-methyl-2-oxo-1,2-dihydropyridine-3-carboxamide] are 1 nM and 2 nM. At cMET, `Cc1ccc(C(=O)Nc2ccc(Oc3ccnc(N(C(=O)C4CC4)C(=O)C4CC4)c3Cl)c(F)c2)c(=O)n1-c1ccc(F)cc1` [Example 31, N-(4-((3-chloro-2-(N-(cyclopropanecarbonyl)cyclopropanecarboxamido)pyridin-4-yl)oxy)-3-fluorophenyl)-1-(4-fluorophenyl)-6-methyl-2-oxo-1,2-dihydropyridine-3-carboxamide] returned a half-maximal inhibitory concentration (IC50) of 3550 nM. Consider `COc1ccn(-c2ccc(F)cc2)c(=O)c1C(=O)Nc1ccc(-c2ccnc(-c3ccnc(N)n3)c2)c(F)c1` [Example 15, N-(4-(2-(2-aminopyrimidin-4-yl)pyridin-4-yl)-3-fluorophenyl)-1-(4-fluorophenyl)-4-methoxy-2-oxo-1,2-dihydropyridine-3-carboxamide], for which, on cMET, the IC50 was 4860 nM. The same measure, in the same setting: the figure for `CCOc1ccn(-c2ccc(F)cc2)c(=O)c1C(=O)Nc1ccc(-c2ccc3snc(N)c3c2)c(F)c1` [Example 21, N-(4-(3-aminobenzo[d]isothiazol-5-yl)-3-fluorophenyl)-4-ethoxy-1-(4-fluorophenyl)-2-oxo-1,2-dihydropyridine-3-carboxamide] is 6030 nM.
